Experimental data taken from US20240376097A1, “BCL-2 Inhibitor” (BeiGene Ltd., priority 2020, published 2024).
Read-outs that look alike come from different tables or passages of the source.

Experiments:
[1] = target: Recombinant human Bcl-2 protein (Homo sapiens (Human), UniProt P10415); assay: Bcl-2 TR-FRET Assay; assay type: binding
Summary of the method: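 0.05 nM Bcl-2 pre-incubated 0.5 h at room temperature with 10-point compound dilutions (top final 1, 0.1, 0.02 or 0.01 uM) in 20 mM potassium phosphate pH 7.5, 50 mM NaCl, 1 mM EDTA, 0.05% Tween-20, 0.01% BSA; FITC-Bak peptide (0.5 nM) and anti-6His Tb cryptate added, 1 h. IC50 from four-parameter logistic fit.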

[2] = target: recombinant human Bcl-2-G101V protein (Homo sapiens (Human), UniProt P10415, G101V); assay: Bcl-2-G101V TR-FRET Assay; assay type: binding; conditions: Bcl-2 G101V mutant, TR-FRET; read-out: Biochemical assay (IC50, nM) Bcl-2 G101V
Summary of the method: (§1)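 IC50 values derive from four-parameter logistic fitting of percent inhibition data. That inhibition of ligand binding to Bcl-2-G101V is computed from the 490 nm/520 nm TR-FRET ratio under 337 nm excitation, over a rising compound concentration series.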

[3] = tested on: recombinant human Bcl-2-G101V protein; assay: Bcl-2-G101V TR-FRET Assay; assay type: binding; conditions: ratio of biochemical IC50 Bcl-2 G101V / Bcl-2 WT
Summary of the method: as §1

[4] = tested on: RS4;11 (BCL-2 dependent acute lymphoblastic leukemia cell line); assay: RS4;11 Cell Proliferation Assay; assay type: cell-based; conditions: Homo sapiens, RS4-11, RS4;11 cells, read-out: Cellular proliferation assay (IC50, nM) RS4
Summary of the method: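 RS4;11 cells, 50,000 per well in RPMI-1640 with 10% FBS, treated 48 h at 37 °C with a 10-point dilution series topping at 1 μM. Viability read by CellTiter-Glo ATP luminescence; mean IC50 reported.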

[5] = tested on: BCL-2 G101V knock-in cell line H96 (derive from RS4;11); assay: Bcl 2-G101V Knock-In RS4;11 Cell Proliferation Assay; assay type: cell-based; conditions: Homo sapiens, RS4;11 Bcl-2 G101V knock-in clone H96, 48 hrs, CellTiter-GLO, read-out: Cellular proliferation assay (IC50, nM) RS4
Summary of the method: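 H96, a CRISPR-generated RS4;11 clone carrying BCL2-G101V knock-in (WES/RNA-seq validated), seeded 50,000 per well and exposed 48 h at 37 °C to 10-point dilutions topping at 1 or 10 μM. Viability by CellTiter-Glo luminescence; mean IC50.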

[6] = target: recombinant human Bcl-2 D103Y protein (Homo sapiens (Human), UniProt P10415, D103Y); assay: Bcl-2-D103Y Biochemical Assay (TR-FRET); assay type: binding; conditions: for IC50: TR-FRET, FITC labeled Bak peptide; for Ratio of Bcl-2 D103Y/Bcl-2 WT: ratio of IC50
Summary of the method: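 Recombinant human Bcl-2 D103Y binding to its ligand measured by TR-FRET (ex 337 nm, em 490/520 nm) with increasing compound concentrations. Percent inhibition from the 490/520 nm ratio; IC50 from four-parameter logistic fit.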

[7] = Bcl-2 wild type, TR-FRET, read-out: Biochemical assay (IC50, nM) Bcl-2 WT
[8] = wild type Bcl-2, unit inferred, read-out: Bcl-2 WT

## COc1cc(CN2CCN(C3CC4(C3)CN(c3ccc(C(=O)NS(=O)(=O)c5ccc(NC[C@H]6CC[C@](C)(O)CC6)c([N+](=O)[O-])c5)c(Oc5cnc6[nH]ccc6c5)c3)C4)[C@H](c3ccccc3C(C)C)C2)cc2c1OCCC2 [Example 318, 2-((1H-pyrrolo[2,3-b]pyridin-5-yl)oxy)-N-((4-((((1r,4r)-4-hydroxy-4-methylcyclohexyl)methyl)amino)-3-nitrophenyl)sulfonyl)-4-(6-((R)-2-(2-isopropylphenyl)-4-((8-methoxychroman-6-yl)methyl)piperazin-1-yl)-2-azaspiro[3.3]heptan-2-yl)benzamide]
[1]; [7]
  IC50: 0.056 nM
[1]; [8]
  IC50: 0.056 nM
[2]
  IC50: 0.16 nM
[3]
  Ratio of Bcl-2 G101V/WT: 2.9
[4]
  IC50: 0.2 nM
[5]
  IC50: 0.31 nM
[6]
  IC50: 0.052 nM
  Ratio of Bcl-2 D103Y/Bcl-2 WT: 0.9

## COc1cc(CN2CCN(C3CC4(C3)CN(c3ccc(C(=O)NS(=O)(=O)c5ccc(NCC6CCOCC6)c([N+](=O)[O-])c5)c(Oc5cnc6[nH]ccc6c5)c3)C4)[C@H](c3ccccc3C(C)C)C2)ccc1C1CC1 [Example 319]
[1]; [7]
  IC50: 0.25 nM
[1]; [8]
  IC50: 0.25 nM
[2]
  IC50: 0.85 nM
[3]
  Ratio of Bcl-2 G101V/WT: 3.3
[4]
  IC50: 0.24 nM
[5]
  IC50: 0.84 nM
[6]
  IC50: 0.42 nM
  Ratio of Bcl-2 D103Y/Bcl-2 WT: 1.7

## COc1cc(CN2CCN(C3CC4(C3)CN(c3ccc(C(=O)NS(=O)(=O)c5ccc(NCC6CCOCC6)c([N+](=O)[O-])c5)c(Oc5cnc6[nH]cc(F)c6c5)c3)C4)[C@H](c3ccccc3C(C)C)C2)ccc1C1CC1 [Example 320, (R)-4-(6-(4-(4-cyclopropyl-3-methoxybenzyl)-2-(2-isopropylphenyl)piperazin-1-yl)-2-azaspiro[3.3]heptan-2-yl)-2-((3-fluoro-1H-pyrrolo[2,3-b]pyridin-5-yl)oxy)-N-((3-nitro-4-(((tetrahydro-2H-pyran-4-yl)methyl)amino)phenyl)sulfonyl) benzamide]
[1]; [7]
  IC50: 0.55 nM
[1]; [8]
  IC50: 0.55 nM
[2]
  IC50: 1.7 nM
[3]
  Ratio of Bcl-2 G101V/WT: 3.1
[4]
  IC50: 0.19 nM
[5]
  IC50: 0.47 nM
[6]
  IC50: 0.52 nM
  Ratio of Bcl-2 D103Y/Bcl-2 WT: 0.93

## [2H]C([2H])([2H])Oc1cc(CN2CCN(C3CC4(C3)CN(c3ccc(C(=O)NS(=O)(=O)c5ccc(NC[C@H]6CC[C@](C)(O)CC6)c([N+](=O)[O-])c5)c(Oc5cnc6[nH]cc(F)c6c5)c3)C4)[C@H](c3ccccc3C(C)C)C2)cc2ccoc12 [Example 322, 2-((3-fluoro-1H-pyrrolo[2,3-b]pyridin-5-yl)oxy)-N-((4-((((1r,4r)-4-hydroxy-4-methylcyclohexyl)methyl)amino)-3-nitrophenyl)sulfonyl)-4-(6-((R)-2-(2-isopropylphenyl)-4-((7-(methoxy-d3)benzofuran-5-yl)methyl)piperazin-1-yl)-2-azaspiro[3.3]heptan-2-yl)benzamide]
[1]; [7]
  IC50: 0.25 nM
[1]; [8]
  IC50: 0.25 nM
[2]
  IC50: 0.72 nM
[3]
  Ratio of Bcl-2 G101V/WT: 2.9
[4]
  IC50: 0.18 nM
[5]
  IC50: 0.32 nM
[6]
  IC50: 0.36 nM
  Ratio of Bcl-2 D103Y/Bcl-2 WT: 1.4

## [2H]C([2H])([2H])Oc1cc(CN2CCN(C3CC4(C3)CN(c3ccc(C(=O)NS(=O)(=O)c5ccc(NC[C@H]6CC[C@](C)(O)CC6)c([N+](=O)[O-])c5)c(Oc5cnc6[nH]ccc6c5)c3)C4)[C@H](c3ccccc3C(C)C)C2)cc2ccoc12 [Example 323, 2-((1H-pyrrolo[2,3-b]pyridin-5-yl)oxy)-N-((4-((((1r,4r)-4-hydroxy-4-methylcyclohexyl)methyl)amino)-3-nitrophenyl)sulfonyl)-4-(6-((R)-2-(2-isopropylphenyl)-4-((7-(methoxy-d3)benzofuran-5-yl)methyl)piperazin-1-yl)-2-azaspiro [3.3]heptan-2-yl)benzamide]
[1]; [7]
  IC50: 0.22 nM
[1]; [8]
  IC50: 0.22 nM
[2]
  IC50: 0.45 nM
[3]
  Ratio of Bcl-2 G101V/WT: 2.1
[4]
  IC50: 0.21 nM
[5]
  IC50: 0.42 nM
[6]
  IC50: 0.19 nM
  Ratio of Bcl-2 D103Y/Bcl-2 WT: 0.87

## [2H]C([2H])([2H])Oc1cc(CN2CCN(C3CC4(C3)CN(c3ccc(C(=O)NS(=O)(=O)c5ccc(NC[C@H]6CC[C@](C)(O)CC6)c([N+](=O)[O-])c5)c(Oc5cnc6[nH]ccc6c5)c3)C4)[C@H](c3ccccc3C(C)C)C2)cc2c1OCC2(C)C [Example 324, 2-((1H-pyrrolo[2,3-b]pyridin-5-yl)oxy)-N-((4-((((1r,4r)-4-hydroxy-4-methylcyclohexyl)methyl)amino)-3-nitrophenyl)sulfonyl)-4-(6-((R)-2-(2-isopropylphenyl)-4-((7-(methoxy-d3)-3,3-dimethyl-2,3-dihydrobenzofuran-5-yl)methyl)piperazin-1-yl)-2-azaspiro[3.3]heptan-2-yl)benzamide]
[1]; [7]
  IC50: 0.16 nM
[1]; [8]
  IC50: 0.16 nM
[2]
  IC50: 0.31 nM
[3]
  Ratio of Bcl-2 G101V/WT: 1.9
[4]
  IC50: 0.22 nM
[5]
  IC50: 0.51 nM
[6]
  IC50: 0.14 nM
  Ratio of Bcl-2 D103Y/Bcl-2 WT: 0.87

## [2H]C([2H])([2H])Oc1cc(CN2CCN(C3CC4(C3)CN(c3ccc(C(=O)NS(=O)(=O)c5ccc(NC[C@H]6CC[C@](C)(O)CC6)c([N+](=O)[O-])c5)c(Oc5cnc6[nH]cc(F)c6c5)c3)C4)[C@H](c3ccccc3C(C)C)C2)cc2c1OCC2(C)C [Example 326, 2-((3-fluoro-1H-pyrrolo[2,3-b]pyridin-5-yl)oxy)-N-((4-((((1r,4r)-4-hydroxy-4-methylcyclohexyl)methyl)amino)-3-nitrophenyl)sulfonyl)-4-(6-((R)-2-(2-isopropylphenyl)-4-((7-(methoxy-d3)-3,3-dimethyl-2,3-dihydrobenzofuran-5-yl)methyl)piperazin-1-yl)-2-azaspiro[3.3]heptan-2-yl)benzamide]
[1]; [7]
  IC50: 0.17 nM
[1]; [8]
  IC50: 0.17 nM
[2]
  IC50: 0.49 nM
[3]
  Ratio of Bcl-2 G101V/WT: 3
[4]
  IC50: 0.19 nM
[5]
  IC50: 0.34 nM
[6]
  IC50: 0.25 nM
  Ratio of Bcl-2 D103Y/Bcl-2 WT: 1.5

## COc1cc(CN2CCN(C3CC4(C3)CN(c3ccc(C(=O)NS(=O)(=O)c5ccc(NC[C@H]6CC[C@](C)(O)CC6)c([N+](=O)[O-])c5)c(Oc5cnc6[nH]cc(F)c6c5)c3)C4)[C@H](c3ccccc3C(C)C)C2)cc2c1OC(C)(C)CC2 [Example 337, 2-((3-fluoro-1H-pyrrolo[2,3-b]pyridin-5-yl)oxy)-N-((4-((((1r,4r)-4-hydroxy-4-methylcyclohexyl)methyl)amino)-3-nitrophenyl)sulfonyl)-4-(6-((R)-2-(2-isopropylphenyl)-4-((8-methoxy-2,2-dimethylchroman-6-yl)methyl)piperazin-1-yl)-2-azaspiro[3.3]heptan-2-yl)benzamide]
[1]; [7]
  IC50: 0.12 nM
[1]; [8]
  IC50: 0.12 nM
[2]
  IC50: 0.37 nM
[3]
  Ratio of Bcl-2 G101V/WT: 3
[4]
  IC50: 0.18 nM
[5]
  IC50: 0.63 nM
[6]
  IC50: 0.39 nM
  Ratio of Bcl-2 D103Y/Bcl-2 WT: 3.2
